{"source": "patent US9125414B2", "about": "“Pyridine derivatives compounds for controlling invertebrate pests” (BASF SE, priority 2009, dated 2015)", "format_in_all_cases": "in vivo", "key": {"[1]": {"system": "Green Peach Aphid (Myzus persicae, mixed life stages)", "assay": "Green peach aphid, method a (leaf dip, pepper plants)", "conditions": "foliar, 120 h, leaves dipped, after 5 days, read-out: mortality in comparison with untreated controls", "text": "II.2 Green Peach Aphid (Myzus persicae, Mixed Life Stages)\nThe active compounds were formulated in 50:50 (vol:vol) acetone:water and 100 ppm Kinetica™ (from Helena Chemical Co.) surfactant.\nPepper plants in the 2nd leaf-pair stage (variety ‘California Wonder’) were infested with approximately 40 laboratory-reared aphids by placing infested leaf sections on top of the test plants. The leaf sections were removed after 24 hr. The leaves of the intact plants were dipped into gradient solutions of the test compound and allowed to dry. Test plants were maintained under fluorescent light (24 hour photoperiod) at about 25° C. and 20-40% relative humidity. Aphid mortality on the treated plants, relative to mortality on check plants, was determined after 5 days."}, "[2]": {"system": "Green Peach Aphid (Myzus persicae)", "assay": "Green peach aphid through systemic means, artificial diet under membrane", "conditions": "72 h, pipetted into aphid diet, 3 days, read-out: mortality in comparison with untreated controls", "text": "II.6 Activity Against Green Peach Aphid (Myzus persicae)\nFor evaluating control of green peach aphid (Myzus persicae) through systemic means the test unit consisted of 96-well-microtiter plates containing liquid artificial diet under an artificial membrane.\nThe compounds were formulated using a solution containing 75% v/v water and 25% v/v DMSO. Different concentrations of formulated compounds were pipetted into the aphid diet, using a custom built pipetter, at two replications. After application, 5 to 8 adult aphids were placed on the artificial membrane inside the microtiter plate wells. The aphids were then allowed to suck on the treated aphid diet and incubated at about 23+1° C. and about 50+5% relative humidity for 3 days. Aphid mortality and fecundity was then visually assessed."}, "[3]": {"system": "Vetch Aphid (Megoura viciae)", "assay": "Vetch aphid, bean leaf disks in microtiterplates", "conditions": "foliar, 144 h, test solution 2500 mg/L, leaf disks sprayed, 6 days", "protocol": "II.4 Vetch Aphid (Megoura viciae)\nThe active compounds were formulated in 1:3 (vol:vol) DMSO:water with different concentrations of formulated compounds.\nBean leaf disks were placed into microtiterplates filled with […] and 2.5 ppm OPUS™ (from BASF SE, conazole). The leaf disks were sprayed with 2.5 μl of the test solution and 5 to 8 adult aphids were placed into the microtiterplates which were then closed and kept at 23±1° C. and 50±5% relative humidity under fluorescent light for 6 days. Mortality was assessed on the basis of vital, reproduced aphids. Aphid mortality and fecundity was then visually assessed."}, "[4]": {"system": "Cotton Aphid (Aphis gossypii, mixed life stages)", "assay": "Cotton aphid, method a (cotyledon dip)", "conditions": "120 h, cotyledons dipped, counts after 5 days, read-out: mortality in comparison with untreated controls", "text": "II.1 Cotton Aphid (Aphis gossypii, Mixed Life Stages)\nThe active compounds were formulated in 50:50 (vol:vol) acetone: water and 100 ppm Kinetica™ (from Helena Chemical Co.) surfactant.\nCotton plants at the cotyledon stage (one plant per pot) were infested by placing a heavily infested leaf from the main colony on top of each cotyledon. The aphids were allowed to transfer to the host plant overnight, and the leaf used to transfer the aphids was removed. The cotyledons were dipped in the test solution and allowed to dry. After 5 days, mortality counts were made."}, "[5]": {"system": "Cowpea Aphid (Aphis craccivora)", "assay": "Cowpea aphid, sprayed potted cowpea plants", "conditions": "population reduction assessed after 24, 72 and 120 hours, read-out: mortality in comparison with untreated controls", "protocol": "II.3 Cowpea Aphid (Aphis craccivora)\nThe active compounds were formulated in 50:50 (vol:vol) acetone:water. The test solution was prepared at the day of use.\nPotted cowpea plants colonized with 100-150 aphids of various stages were sprayed after the pest population had been recorded. Population reduction was assessed after 24, 72, and 120 hours."}}}
{"compound": "O=C(Nc1cccnc1)c1conc1C1CC1", "note": "[Example 15, 3-Cyclopropyl-isoxazole-4-carboxylic acid pyridin-3-ylamide]", "values": [{"measurement": "mortality at 300 ppm", "setting": "[1]", "value": "≥ 90", "unit": "%"}, {"measurement": "mortality at 2500 ppm", "setting": "[2]", "value": 100, "unit": "%"}, {"measurement": "mortality at 2500 µg/mL", "setting": "[3]", "value": "≥ 90", "unit": "%"}, {"measurement": "mortality at 300 ppm", "setting": "[4]", "value": "≥ 90", "unit": "%"}, {"measurement": "mortality at 300 ppm", "setting": "[5]", "value": "≥ 90", "unit": "%"}]}
